For experiment [1], the target named is Sodium-dependent noradrenaline transporter (Homo sapiens, UniProt P23975). Kind of experiment: DRUGMATRIX: Norepinephrine Transporter radioligand binding (ligand: [125I] RTI-55). It is filed as cell membranes, MDCK, Membrane. Particulars: Not Active = under 50% inhibition at 10 µM; for pIC50: read-out: IC50; for pKi: read-out: Ki; for IC50 / Ki: mdck.
Experiment [2] concerns the target Sigma non-opioid intracellular receptor 1 (Homo sapiens, UniProt Q99720). Put plainly: DRUGMATRIX: Sigma1 radioligand binding (ligand: [3H] Haloperidol). The experiment is classed as cell membranes, Jurkat, Membrane. Particulars: jurkat; Not Active = under 50% inhibition at 10 µM.
The target in experiment [3] is T1, C-X-C chemokine receptor type 1 (Homo sapiens, UniProt P25024). Further: in other assays of this panel Not Active means under 50% inhibition at 10 µM.
T1 sequence (P25024 whole entry): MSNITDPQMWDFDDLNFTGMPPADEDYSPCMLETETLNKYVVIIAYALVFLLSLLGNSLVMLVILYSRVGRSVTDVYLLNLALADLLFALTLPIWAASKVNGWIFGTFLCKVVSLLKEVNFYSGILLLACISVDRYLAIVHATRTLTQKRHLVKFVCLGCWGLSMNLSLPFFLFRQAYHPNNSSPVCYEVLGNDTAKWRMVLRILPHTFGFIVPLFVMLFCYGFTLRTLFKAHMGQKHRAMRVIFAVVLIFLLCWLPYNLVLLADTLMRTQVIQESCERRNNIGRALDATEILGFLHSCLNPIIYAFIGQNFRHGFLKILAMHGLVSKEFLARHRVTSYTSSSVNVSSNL

In experiment [4] the target is T2, Androgen receptor (Rattus norvegicus, UniProt P15207). Further: in other assays of this panel Not Active means under 50% inhibition at 10 µM.
T2 sequence (P15207 whole entry): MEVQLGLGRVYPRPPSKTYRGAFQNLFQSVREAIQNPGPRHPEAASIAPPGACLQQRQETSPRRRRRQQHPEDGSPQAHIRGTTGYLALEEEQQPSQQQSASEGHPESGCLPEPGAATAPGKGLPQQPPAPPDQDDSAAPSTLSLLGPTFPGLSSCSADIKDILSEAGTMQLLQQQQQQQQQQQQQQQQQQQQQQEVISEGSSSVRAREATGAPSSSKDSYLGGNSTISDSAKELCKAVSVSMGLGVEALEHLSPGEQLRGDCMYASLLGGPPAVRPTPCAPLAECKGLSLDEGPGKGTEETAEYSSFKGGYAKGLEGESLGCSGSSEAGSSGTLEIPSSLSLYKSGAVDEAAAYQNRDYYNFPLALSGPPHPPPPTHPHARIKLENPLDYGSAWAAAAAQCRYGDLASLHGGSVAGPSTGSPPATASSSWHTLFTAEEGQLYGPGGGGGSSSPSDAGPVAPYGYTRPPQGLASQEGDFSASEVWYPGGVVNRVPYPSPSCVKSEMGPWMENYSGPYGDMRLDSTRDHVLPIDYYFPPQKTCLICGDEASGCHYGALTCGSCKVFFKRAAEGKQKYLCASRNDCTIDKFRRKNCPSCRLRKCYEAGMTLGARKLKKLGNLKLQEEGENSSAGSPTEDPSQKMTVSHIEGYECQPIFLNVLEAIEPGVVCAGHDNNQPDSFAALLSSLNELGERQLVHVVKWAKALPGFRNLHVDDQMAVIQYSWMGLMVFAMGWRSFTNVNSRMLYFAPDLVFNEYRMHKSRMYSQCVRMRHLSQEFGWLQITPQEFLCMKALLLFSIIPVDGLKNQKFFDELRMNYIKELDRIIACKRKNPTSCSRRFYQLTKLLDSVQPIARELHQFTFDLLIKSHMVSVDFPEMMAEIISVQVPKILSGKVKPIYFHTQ

Experiment [5] addresses Cytochrome P450 2D6 (Homo sapiens, UniProt P10635).
Experiment [6] deals with T2, Androgen receptor. This is another data set of the same source.
Experiment [7] deals with Cytochrome P450 2C9 (Homo sapiens, UniProt P11712).
Sequence of Cytochrome P450 2C9 (P11712 whole entry): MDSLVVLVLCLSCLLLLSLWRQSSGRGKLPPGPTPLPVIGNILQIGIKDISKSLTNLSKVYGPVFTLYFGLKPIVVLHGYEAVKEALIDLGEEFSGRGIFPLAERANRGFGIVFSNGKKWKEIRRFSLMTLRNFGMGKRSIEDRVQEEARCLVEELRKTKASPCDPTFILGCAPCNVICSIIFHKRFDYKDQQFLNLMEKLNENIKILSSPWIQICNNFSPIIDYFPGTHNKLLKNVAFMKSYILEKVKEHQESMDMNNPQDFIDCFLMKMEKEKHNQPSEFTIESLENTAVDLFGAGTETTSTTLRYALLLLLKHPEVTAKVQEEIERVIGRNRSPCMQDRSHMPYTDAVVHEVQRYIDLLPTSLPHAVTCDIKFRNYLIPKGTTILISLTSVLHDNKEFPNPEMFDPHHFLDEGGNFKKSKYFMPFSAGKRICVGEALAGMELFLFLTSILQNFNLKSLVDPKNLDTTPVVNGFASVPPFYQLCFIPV
The target of experiment [8] is T3, Glucocorticoid receptor (Homo sapiens, UniProt P04150). Further: in other assays of this panel Not Active means under 50% inhibition at 10 µM.
T3 sequence (P04150 whole entry): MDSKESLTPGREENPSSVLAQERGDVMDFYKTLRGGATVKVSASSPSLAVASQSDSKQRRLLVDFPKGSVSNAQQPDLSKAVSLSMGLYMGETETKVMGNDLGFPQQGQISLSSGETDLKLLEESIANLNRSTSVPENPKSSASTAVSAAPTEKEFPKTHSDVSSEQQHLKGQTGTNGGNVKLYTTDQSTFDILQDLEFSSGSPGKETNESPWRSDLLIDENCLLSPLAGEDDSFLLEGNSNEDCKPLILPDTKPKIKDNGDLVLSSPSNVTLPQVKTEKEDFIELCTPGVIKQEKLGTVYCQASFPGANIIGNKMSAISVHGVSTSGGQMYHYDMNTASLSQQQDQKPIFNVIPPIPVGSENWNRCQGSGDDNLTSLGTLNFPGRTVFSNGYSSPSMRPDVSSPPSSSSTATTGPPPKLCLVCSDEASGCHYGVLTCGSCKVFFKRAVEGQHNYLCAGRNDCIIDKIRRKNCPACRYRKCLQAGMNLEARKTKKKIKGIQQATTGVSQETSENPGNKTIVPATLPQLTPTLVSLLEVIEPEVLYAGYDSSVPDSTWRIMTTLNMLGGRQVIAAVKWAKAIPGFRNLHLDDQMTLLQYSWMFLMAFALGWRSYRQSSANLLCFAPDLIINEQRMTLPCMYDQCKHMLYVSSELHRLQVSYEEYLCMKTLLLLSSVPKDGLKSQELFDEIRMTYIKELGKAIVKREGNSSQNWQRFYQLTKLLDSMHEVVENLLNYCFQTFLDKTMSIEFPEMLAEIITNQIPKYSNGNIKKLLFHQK
Kind of experiment: biochemical.

In experiment [9] the target is Cytochrome P450 2C19 (Homo sapiens, UniProt P33261). Further: in other assays of this panel Not Active means under 50% inhibition at 10 µM.
Sequence of Cytochrome P450 2C19 (P33261 whole entry): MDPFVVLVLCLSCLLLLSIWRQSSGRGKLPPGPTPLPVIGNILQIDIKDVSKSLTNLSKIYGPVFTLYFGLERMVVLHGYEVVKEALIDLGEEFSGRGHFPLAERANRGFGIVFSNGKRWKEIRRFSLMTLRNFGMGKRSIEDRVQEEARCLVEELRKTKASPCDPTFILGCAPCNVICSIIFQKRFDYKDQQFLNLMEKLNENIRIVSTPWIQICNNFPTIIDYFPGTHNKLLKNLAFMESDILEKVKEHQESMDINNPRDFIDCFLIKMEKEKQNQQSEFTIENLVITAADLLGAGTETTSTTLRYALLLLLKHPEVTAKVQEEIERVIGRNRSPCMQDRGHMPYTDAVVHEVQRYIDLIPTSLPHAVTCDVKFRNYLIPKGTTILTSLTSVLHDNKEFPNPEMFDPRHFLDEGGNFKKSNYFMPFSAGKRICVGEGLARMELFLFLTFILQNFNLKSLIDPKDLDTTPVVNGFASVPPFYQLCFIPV

As usually defined, the pIC50 is −log10 of the IC50, conventionally taken in molar units. A word on the pKi: it is the Ki on a negative log10 scale, so that one unit is a factor of ten.

pIC50, pKi: −log10 of the molar value.

Sequence of Sodium-dependent noradrenaline transporter (P23975 whole entry): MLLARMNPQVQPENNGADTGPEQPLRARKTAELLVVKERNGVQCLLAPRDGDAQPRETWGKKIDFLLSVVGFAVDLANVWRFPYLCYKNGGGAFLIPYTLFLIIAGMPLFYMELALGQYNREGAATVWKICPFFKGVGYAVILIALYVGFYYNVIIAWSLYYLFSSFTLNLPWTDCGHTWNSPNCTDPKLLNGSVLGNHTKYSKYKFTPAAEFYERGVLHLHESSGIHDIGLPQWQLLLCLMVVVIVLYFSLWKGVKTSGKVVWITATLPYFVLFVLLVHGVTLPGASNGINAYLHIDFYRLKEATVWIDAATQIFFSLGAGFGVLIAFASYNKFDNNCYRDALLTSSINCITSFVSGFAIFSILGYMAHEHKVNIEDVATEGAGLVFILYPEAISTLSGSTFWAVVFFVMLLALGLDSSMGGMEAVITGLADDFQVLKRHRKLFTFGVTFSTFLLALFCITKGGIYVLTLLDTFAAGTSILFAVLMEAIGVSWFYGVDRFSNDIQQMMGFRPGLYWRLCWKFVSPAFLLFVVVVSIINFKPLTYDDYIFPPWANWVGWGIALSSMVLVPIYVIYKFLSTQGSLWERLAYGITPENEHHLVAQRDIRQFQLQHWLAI
Sequence of Sigma non-opioid intracellular receptor 1 (Q99720 whole entry): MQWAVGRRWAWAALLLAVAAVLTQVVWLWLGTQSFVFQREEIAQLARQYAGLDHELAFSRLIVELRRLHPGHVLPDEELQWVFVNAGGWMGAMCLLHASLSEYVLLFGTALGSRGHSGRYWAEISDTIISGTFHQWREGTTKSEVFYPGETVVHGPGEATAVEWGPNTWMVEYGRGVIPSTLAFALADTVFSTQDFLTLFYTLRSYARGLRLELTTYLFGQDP
Sequence of Cytochrome P450 2D6 (P10635 whole entry): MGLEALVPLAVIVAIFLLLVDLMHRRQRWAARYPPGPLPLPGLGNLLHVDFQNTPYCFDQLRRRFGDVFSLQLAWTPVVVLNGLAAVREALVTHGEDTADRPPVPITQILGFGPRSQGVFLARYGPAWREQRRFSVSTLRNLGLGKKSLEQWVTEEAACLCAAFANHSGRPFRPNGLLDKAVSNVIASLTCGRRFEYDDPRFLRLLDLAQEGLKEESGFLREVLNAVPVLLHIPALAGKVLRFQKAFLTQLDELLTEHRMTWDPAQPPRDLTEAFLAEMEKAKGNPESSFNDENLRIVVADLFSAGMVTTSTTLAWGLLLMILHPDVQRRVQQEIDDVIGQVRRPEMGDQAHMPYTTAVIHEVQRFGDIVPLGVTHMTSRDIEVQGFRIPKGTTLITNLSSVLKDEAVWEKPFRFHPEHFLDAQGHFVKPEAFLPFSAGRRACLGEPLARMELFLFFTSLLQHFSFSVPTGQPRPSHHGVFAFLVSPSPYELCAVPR

As for `Cc1c(O)cccc1C(=O)N[C@@H](CSc1ccccc1)[C@H](O)CN1C[C@H]2CCCC[C@H]2C[C@H]1C(=O)NC(C)(C)C`, the figures for the pIC50 in experiment [1] and in [4] were 5.05 and 4.44, respectively. The figures for the pKi in [1] and in experiment [4] were 5.06 and 4.62, respectively. Also, the IC50 result in [2] and in experiment [3] was “Not Active” in each case.

With `CC(O)COC[C@H]1O[C@@H]2O[C@H]3[C@H](O)[C@@H](O)[C@@H](O[C@H]4[C@H](O)[C@@H](O)[C@@H](O[C@H]5[C@H](O)[C@@H](O)[C@@H](O[C@H]6[C@H](O)[C@@H](O)[C@@H](O[C@H]7[C@H](O)[C@@H](O)[C@@H](O[C@H]8[C@H](O)[C@@H](O)[C@@H](O[C@H]1[C@H](O)[C@H]2O)O[C@@H]8COCC(C)O)O[C@@H]7COCC(C)O)O[C@@H]6COCC(C)O)O[C@@H]5COCC(C)O)O[C@@H]4COCC(C)O)O[C@@H]3COCC(C)O` (stereo partly drawn) [2-HYDROXYPROPYL-BETA-CYCLODEXTRIN], the pIC50 in experiment [1] was 5.90; in experiment [4], 5.67. Moreover, the values for the pKi in experiment [1] and in experiment [4] were 5.90 and 5.84, respectively. Besides, the IC50 result in experiment [2] and in experiment [3] was “Not Active” throughout.

Take `CC[C@H]1[C@@H]2C[C@H]3[C@@H]4N(C)c5ccccc5[C@]45C[C@@H]([C@@H]2[C@H]5O)N3[C@@H]1O` [AJMALINE]: the IC50 result in experiment [1], in [2] and in experiment [3] was “Not Active” each time. Moreover, in experiment [5], the pIC50 is 6.00.

As to `CN1CCN(C(c2ccccc2)c2ccccc2)CC1` [CYCLIZINE], the IC50 result in experiment [1], in experiment [3] and in [6] was “Not Active” throughout. The compound further had a pIC50 in experiment [5] of 5.21.

Regarding `CC(C)C[C@H]1C(=O)N2CCC[C@H]2[C@]2(O)O[C@](NC(=O)[C@@H]3C=C4c5cccc6[nH]cc(c56)C[C@H]4N(C)C3)(C(C)C)C(=O)N12` [ERGOCRYPTINE], the IC50 entry in experiment [1], in experiment [2], in experiment [3] and in experiment [6] was “Not Active” throughout. The pIC50 in experiment [7] was 5.22.

For the compound `C[C@]12CC[C@@H]3c4ccc(O)cc4CC[C@H]3[C@@H]1C[C@@H](O)[C@@H]2O` [ESTRIOL], the IC50 result in [1], in experiment [2] and in [3] was “Not Active” throughout. In [8], the pIC50 was 4.41. Besides, the pKi in [8] is 4.75.

Turning to `C#C[C@]1(O)CC[C@H]2[C@@H]3CCC4=CC(=O)CC[C@]4(C)[C@H]3CC[C@@]21C` [ETHISTERONE], the IC50 result in [1], in experiment [2] and in experiment [3] was “Not Active” in each case. In experiment [8], this compound had a pIC50 of 6.68. The pKi in experiment [8] was 7.02.

In the case of `CC(=O)OCC(=O)[C@@]12OC(C)(C)O[C@@H]1C[C@H]1[C@@H]3C[C@H](F)C4=CC(=O)C=C[C@]4(C)[C@@]3(F)[C@@H](O)C[C@@]12C` [FLUOCINONIDE], the IC50 entry in experiment [1], in [2] and in [3] was “Not Active” in each case. The compound also had a pIC50 in experiment [8] of 8.28. In [8], this compound gave a pKi of 8.62.

`Cc1ccc(C)c(OCCCC(C)(C)C(=O)O)c1` [GEMFIBROZIL]: the IC50 result in experiment [1], in experiment [2], in experiment [3] and in experiment [6] was “Not Active” in each case.

For the compound `O=c1c(-c2ccc(O)cc2)coc2cc(O)cc(O)c12` [GENISTEIN], the IC50 result in experiment [1], in experiment [2], in experiment [3] and in experiment [6] was “Not Active” throughout.

Regarding `CCC1=C(C)CN(C(=O)NCCc2ccc(S(=O)(=O)NC(=O)N[C@H]3CC[C@H](C)CC3)cc2)C1=O` [GLIMEPIRIDE], the IC50 entry in experiment [1], in experiment [2], in experiment [3] and in experiment [6] was “Not Active” each time.

Take `Nc1cc(-c2ccncc2)c[nH]c1=O` [INAMRINONE]: the IC50 result in experiment [1], in [2], in experiment [3] and in experiment [6] was “Not Active” in each case.

For `N[C@@H](Cn1ccc(=O)c(O)c1)C(=O)O` [L-MIMOSINE], the IC50 result in experiment [1], in experiment [2], in experiment [3] and in experiment [6] was “Not Active” throughout.

Regarding `CN1C(=O)CN=C(c2ccccc2)c2cc([N+](=O)[O-])ccc21` [NIMETAZEPAM], the IC50 entry in experiment [1], in [2], in [3] and in [6] was “Not Active” each time.

Take `COc1ccc2c(c1OC)C(=O)O[C@@H]2[C@H]1c2c(cc3c(c2OC)OCO3)CCN1C` [NOSCAPINE]: the IC50 result in experiment [1], in experiment [2] and in experiment [3] was “Not Active” each time. The results for the pIC50 in [9] and in [7] were 6.40 and 5.09, respectively.

Turning to `CCN(CC)CCCC(C)Nc1c2ccc(Cl)cc2nc2ccc(OC)cc12` (centres undefined) [QUINACRINE], in experiment [1], the pIC50 is 5.54. The pKi in experiment [1] was 5.54. Further, the IC50 entry in [2], in [3] and in experiment [6] was “Not Active” each time.

As for `C[C@]12C=CC(=O)C=C1CC[C@H]1[C@@H]3C[C@@H](O)[C@](O)(C(=O)CO)[C@@]3(C)C[C@H](O)[C@@]12F` [TRIAMCINOLONE], the IC50 result in experiment [1], in experiment [2] and in experiment [3] was “Not Active” in each case. This compound had a pIC50 in experiment [8] of 7.24. The pKi in experiment [8] is 7.59.

Turning to `CC[C@]1(O)C[C@@H]2CN(CCc3c([nH]c4ccccc34)[C@@](C(=O)OC)(c3cc4c(cc3OC)N(C)[C@H]3[C@@](O)(C(N)=O)[C@H](O)[C@]5(CC)C=CCN6CC[C@]43[C@@H]65)C2)C1` [VINDESINE], the IC50 entry in [1], in [2], in [3] and in experiment [6] was “Not Active” each time.

Take COBALTOUS CHLORIDE: the IC50 result in [1], in experiment [2], in [3] and in [6] was “Not Active” throughout. Moreover, the Ki result in [1], in experiment [2], in experiment [3] and in experiment [6] was “Not Active” in each case.

Take COLISTIN: the IC50 result in experiment [1], in [2], in experiment [3] and in [6] was “Not Active” in each case. Further, the Ki entry in experiment [1], in [2], in experiment [3] and in experiment [6] was “Not Active” throughout.

The record behind these values is ChEMBL document CHEMBL1909046, “DrugMatrix in vitro pharmacology data”.
